Measured values: article PMC6737591, “Abstracts from the 22nd International Symposium on Signal Transduction at the Blood–Brain Barriers” (Fluids and Barriers of the CNS, 2019)

Key:
[1] = Chemical stability in cell media supplemented with 10% FBS by UPLC; assay type: in vitro ADME; conditions: for % of initial remained intact: UPLC, cell media supplemented with 10% FBS, 4 h incubation, fluorophore-labelled constructs
Source text: All constructs were stable in PBS.

astrocytes = assay: Uptake in astrocytes cultured on the basolateral (brain) side; assay type: cell-based; conditions: rat astrocytes below bovine brain endothelial cells; fluorophore-labelled
Description: The propensity of Tat to facilitate brain endothelial cell adherence -and uptake as well as BBB permeation of NR2B9c and the N-dimer was assessed using primary bovine brain endothelial cells cultured in contact with rat astrocytes4.

[2] = biological target: T1, Creatine transporter (CRT) (Homo sapiens, UniProt P48029); assay: [14C]cyclocreatine / [14C]creatine uptake by hCMEC/D3 cells; assay type: cell-based; parameters: hCMEC/D3 cells, which are immortalized human brain microvascular endothelial cells; endogenous in cells; host or cells: hCMEC/D3 cells; conditions: for inhibition of uptake by CRT-targeting siRNA: CRT mRNA expression reduced by 97%, substrate 9 µM; for suppression of [14C]cyclocreatine uptake: [14C]cyclocreatine 9 µM, 37 °C
T1 sequence (P48029 1-635): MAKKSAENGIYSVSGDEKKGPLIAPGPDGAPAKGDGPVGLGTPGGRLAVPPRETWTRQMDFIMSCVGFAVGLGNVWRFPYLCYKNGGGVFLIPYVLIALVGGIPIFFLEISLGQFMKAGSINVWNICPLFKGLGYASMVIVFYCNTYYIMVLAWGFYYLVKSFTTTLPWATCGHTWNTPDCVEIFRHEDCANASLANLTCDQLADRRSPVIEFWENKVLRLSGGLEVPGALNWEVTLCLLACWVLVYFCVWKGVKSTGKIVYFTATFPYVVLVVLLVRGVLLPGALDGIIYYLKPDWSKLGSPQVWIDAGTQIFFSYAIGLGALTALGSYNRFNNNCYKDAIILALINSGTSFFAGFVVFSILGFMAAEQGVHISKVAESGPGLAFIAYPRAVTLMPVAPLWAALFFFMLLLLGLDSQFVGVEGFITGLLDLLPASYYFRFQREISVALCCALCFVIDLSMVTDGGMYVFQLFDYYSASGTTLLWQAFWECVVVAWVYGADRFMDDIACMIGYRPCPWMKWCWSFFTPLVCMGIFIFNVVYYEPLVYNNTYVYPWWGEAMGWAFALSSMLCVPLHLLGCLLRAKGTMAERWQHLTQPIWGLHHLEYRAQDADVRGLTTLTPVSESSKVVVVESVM
Description: (§1) Methods: Cells were incubated with [14C]cyclocreatine (9 µM) and [14C]creatine (9 µM) for the indicated times at 37 °C in the presence or absence of several compounds. siRNAs were transfected by lipofection. Protein and mRNA expressions were quantified by LC–MS/MS and qPCR, respectively.

[3] = biological target: T1, Creatine transporter (CRT); assay: [14C]cyclocreatine / [14C]creatine uptake by HEK293 cells; assay type: cell-based; parameters: endogenous in cells; host or cells: HEK293 cells; conditions: for inhibition of uptake by CRT-targeting siRNA: CRT protein expression reduced by 42%, substrate 9 µM
Description: as §1

[4] = system: murine brain microvascular endothelial cells (MBMECs); assay: NMDAR modulators on brain endothelial cells (electrophysiology, Ca2+, TEER, migration); assay type: cell-based; conditions: for NMDAR mediated current: whole cell recorded MBMECs, compared to control conditions
Source text: In neurodegenerative disorders, concentrations of extracellular neurotransmitter in the central nervous system (CNS) are out of balance. Glutamatergic dysregulation and extracellular glycine accumulation cause excitotoxicity and subsequent neuronal death. This process is largely mediated by N-methyl-D-aspartate receptor (NMDAR) activation. NMDARs are ionotropic receptors permeable for positive ions. In the CNS, they are composed by two obligatory NR1 subunits containing glycine binding sites and two NR2 subunits that are activated by glutamate. NR3 subunits which are less abundant in the CNS are activated by glycine. While neuronal NMDARs are well studied, their functional role on endothelial cells (ECs) is still to be investigated. ECs of the Blood Brain Barrier (BBB) are exposed to the extracellular milieu of the CNS and therefore to high concentrations of neurotransmitters. In this study, we investigated the effect of NMDAR modulators on murine brain microvascular endothelial cells (MBMECs).

[5] = system: Rat primary brain endothelial, pericyte and astroglial cell cultures; assay: Kainate damage and drug protection in BBB culture model
Source text: In animal models of epilepsy induced by kainic acid, the primary ligand of ionotropic kainate receptors, BBB damage occurs, but the effect of kainate on brain endothelial cells has not been studied. Our aim was to examine the presence of kainate receptors and the effects of kainate on cultured cells of the BBB and to test anti-inflammatory and antioxidant drugs to protect against kainate-induced changes. Rat primary brain endothelial, pericyte and astroglial cell cultures were used to study cell viability by impedance measurement and cell morphology. BBB permeability was measured on a model made from the three cell types. The production of nitrogen monoxide and reactive oxygen species was followed by fluorescent probes. Four drugs were tested to protect against kainate-induced changes. The mRNA expression of kainate receptors and nitric oxide synthases (NOS) were studied by RT-PCR.

transgenic hAPP mice = assay: PCN or NAC purified diet in transgenic hAPP mice; assay type: in vivo
Source text: Methods: To test our hypothesis, transgenic hAPP mice received a purified diet containing the PXR activator pregnenolone 16α-carbonitrile (PCN) or the ROS scavenger N-acetyl-L-cysteine (NAC). We assessed P-gp protein expression and transport activity, Aβ brain and plasma levels, capillary leakage, renal function and cognition to test the PCN or NAC effect in hAPP mice.

[6] = system: primary mouse brain microvascular endothelial cells (pMBMECs); assay: Effector OT-I CD8+ T-cell interaction with antigen-pulsed pMBMECs under physiological flow; assay type: cell-based; conditions: SIINFEKL and MHC class I on WT pMBMECs
Source text: Methods and results: We used primary mouse brain microvascular endothelial cells (pMBMECs) as an in vitro model for BBB. […] We next investigated, if naive CD8+ T cells can interact with pMBMECs under physiological flow. […] This prompted us to investigate how endothelial Ag-presentation contributes to the interaction of effector OT-I CD8+ T-cells with pMBMECs under physiological flow.

[7] = substrate: NC1=NCCN1CC(=O)O; assay: [14C]cyclocreatine / [14C]creatine uptake by HEK293 cells; assay type: cell-based; conditions: other: HEK293 cells, 37 °C, saturable kinetics
Description: as §1

[8] = 12-month old mice treated for 3 weeks

Tat: 11-residue cationic peptide, tool to facilitate delivery of peptide drug entities into cells and across barriers
% of initial remained intact [1]: ~ 50%
integrity in cell media (in words) ([1]; cell media, conclusion statement): extensive degradation
uptake in astrocytes cultured on the basolateral (brain) side (astrocytes): observed

CN(CC(=O)O)C(=N)N [creatine]
inhibition of uptake by CRT-targeting siRNA [2]: 63%
suppression of [14C]cyclocreatine uptake [2]: 91%
inhibition at 10000 µM ([3]; HEK293, read-out: inhibition of [14C]cyclocreatine uptake): 97%
inhibition of uptake by CRT-targeting siRNA ([3]; HEK293 cells): 37%

NC(N)=NCCC(=O)O [GPA, guanidinopropionic acid]
suppression of [14C]cyclocreatine uptake [2]: 91%
inhibition of [14C]cyclocreatine uptake ([3]; HEK293 cells, inhibitor 10 mM, [14C]cyclocreatine 9 µM, 37 °C): 96%

NR2B9c: clinically relevant peptide drug entity (1 kDa) (KLSSIESDV; UniProt Q13224 1476-1484, looked up, fragment)
% of initial remained intact [1]: ~ 90%
uptake in astrocytes cultured on the basolateral (brain) side (astrocytes): not

O=C(O)c1cccnc1C(=O)O [quinolinic acid]
transendothelial electrical resistance (TEER) ([4]; MBMECs): No changes
NMDAR mediated current [4]: did neither evoke any

NCC(=O)O [glycine]
MBMEC migration ([4]; MBMECs): impaired
intracellular Ca2+ levels ([4]; MBMECs): increase
transendothelial electrical resistance (TEER) ([4]; MBMECs): reduced
NMDAR mediated current [4]: bigger

NC1=NCCN1CC(=O)O [[14C]cyclocreatine, cyclocreatine]
inhibition of uptake by CRT-targeting siRNA [2]: 70%
inhibition of uptake by CRT-targeting siRNA ([3]; HEK293 cells): 33%

C=C(C)[C@H]1CN[C@H](C(=O)O)[C@H]1CC(=O)O [Kainate, kainic acid]
production of nitric oxide (NO) in brain endothelial cells ([5]; fluorescent probes): increased
viability or morphology of astroglial cells ([5]; rat primary astroglial cells): unchanged
effect on brain endothelial cells (viability by impedance) ([5]; rat primary brain endothelial cells, concentration- and time-dependent): damaged

N[C@@H](CCC(=O)O)C(=O)O [glutamate]
transendothelial electrical resistance (TEER) ([4]; MBMECs): No changes
NMDAR mediated current [4]: did neither evoke any

CC(=O)N[C@@H](CS)C(=O)O [NAC, N-acetyl-L-cysteine]
barrier leakage (transgenic hAPP mice; [8]): reduced
renal function (transgenic hAPP mice; [8]): improved

SIINFEKL [cognate peptide antigen for OT-I CD8+ T cells]
T-cell crawling [6]: prohibited
T-cell migration rates [6]: decreased

CC1=NN(c2ccccc2)C(=O)C1 [edaravone]
protection against the reduced cell viability and increased permeability caused by kainate ([5]; kainate-treated cells / BBB model): protected

CC(=O)[C@H]1[C@H](C#N)C[C@H]2[C@@H]3CC=C4C[C@@H](O)CC[C@]4(C)[C@H]3CC[C@@]21C [PCN, pregnenolone 16α-carbonitrile]
Aβ brain levels (transgenic hAPP mice; hAPP mice fed for 21 months): lowered
P-gp protein expression and transport activity (transgenic hAPP mice; hAPP mice fed for 21 months): restored
cognition (transgenic hAPP mice; hAPP mice fed for 21 months): improved

B1: Creatine transporter (CRT) (Homo sapiens) (protein)
chain: MAKKSAENGIYSVSGDEKKGPLIAPGPDGAPAKGDGPVGLGTPGGRLAVPPRETWTRQMDFIMSCVGFAVGLGNVWRFPYLCYKNGGGVFLIPYVLIALVGGIPIFFLEISLGQFMKAGSINVWNICPLFKGLGYASMVIVFYCNTYYIMVLAWGFYYLVKSFTTTLPWATCGHTWNTPDCVEIFRHEDCANASLANLTCDQLADRRSPVIEFWENKVLRLSGGLEVPGALNWEVTLCLLACWVLVYFCVWKGVKSTGKIVYFTATFPYVVLVVLLVRGVLLPGALDGIIYYLKPDWSKLGSPQVWIDAGTQIFFSYAIGLGALTALGSYNRFNNNCYKDAIILALINSGTSFFAGFVVFSILGFMAAEQGVHISKVAESGPGLAFIAYPRAVTLMPVAPLWAALFFFMLLLLGLDSQFVGVEGFITGLLDLLPASYYFRFQREISVALCCALCFVIDLSMVTDGGMYVFQLFDYYSASGTTLLWQAFWECVVVAWVYGADRFMDDIACMIGYRPCPWMKWCWSFFTPLVCMGIFIFNVVYYEPLVYNNTYVYPWWGEAMGWAFALSSMLCVPLHLLGCLLRAKGTMAERWQHLTQPIWGLHHLEYRAQDADVRGLTTLTPVSESSKVVVVESVM
notes: endogenous in cells; host or cells: HEK293 cells
Km [7]: 188 µM
Vmax [7]: 273 pmol/mg protein/min
